The source of these data is ChEMBL document CHEMBL1136797, “Fumagalone, a reversible inhibitor of type 2 methionine aminopeptidase and angiogenesis” (J Med Chem, 2003).

pIC50: −log10 of the molar value. Active and inactive are the calls of the source. No cut-off for these calls is given here.

Assay [1] can be described thus: Inhibition of indothelial cell ploriferation determined in bovine aortic endothelial cell (BAEC). In kind it is functional, cell-based, Bos taurus.
For assay [2], the target named is T1, Methionine aminopeptidase 2 (Homo sapiens, UniProt P50579).
Target sequence in this assay (P50579 2-478 limits assumed): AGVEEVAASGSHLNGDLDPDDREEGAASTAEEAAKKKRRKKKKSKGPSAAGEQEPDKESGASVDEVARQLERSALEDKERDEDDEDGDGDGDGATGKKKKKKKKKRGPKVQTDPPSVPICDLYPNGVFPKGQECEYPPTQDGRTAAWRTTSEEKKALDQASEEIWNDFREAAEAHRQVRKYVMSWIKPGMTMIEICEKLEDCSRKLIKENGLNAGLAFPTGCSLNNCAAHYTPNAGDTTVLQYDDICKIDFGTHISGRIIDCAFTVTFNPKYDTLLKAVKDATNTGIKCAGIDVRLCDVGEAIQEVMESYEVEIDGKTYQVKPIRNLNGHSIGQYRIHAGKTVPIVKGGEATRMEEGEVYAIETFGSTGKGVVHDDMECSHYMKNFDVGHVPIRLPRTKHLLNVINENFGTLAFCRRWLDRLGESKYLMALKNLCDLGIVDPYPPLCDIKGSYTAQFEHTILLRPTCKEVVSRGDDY
The test system of assay [3] is Endothelial cell. Nature of the assay: Inhibition of indothelial cell ploriferation determined in bovine aortic endothelial cell (BAEC); Inactive. In kind it is functional, cell-based. Particulars: Bos taurus.
In assay [4] the test system is Endothelial cell. The assay is described as follows: Inhibition of endothelial cell ploriferation determined in bovine aortic endothelial cell (BAEC); Inactive. Particulars: Bos taurus. It is filed as functional, cell-based.
Assay [5] is described as follows: Inhibition of endothelial cell ploriferation determined in bovine aortic endothelial cell (BAEC). It is filed as functional, cell-based, Bos taurus.
Assay [6] has as its target T1, Methionine aminopeptidase 2. The assay is described as follows: In vitro inhibitory activity against purified recombinant human Methionine Aminopeptidase 2 (MetAP2).
Target sequence in this assay (P50579 whole entry): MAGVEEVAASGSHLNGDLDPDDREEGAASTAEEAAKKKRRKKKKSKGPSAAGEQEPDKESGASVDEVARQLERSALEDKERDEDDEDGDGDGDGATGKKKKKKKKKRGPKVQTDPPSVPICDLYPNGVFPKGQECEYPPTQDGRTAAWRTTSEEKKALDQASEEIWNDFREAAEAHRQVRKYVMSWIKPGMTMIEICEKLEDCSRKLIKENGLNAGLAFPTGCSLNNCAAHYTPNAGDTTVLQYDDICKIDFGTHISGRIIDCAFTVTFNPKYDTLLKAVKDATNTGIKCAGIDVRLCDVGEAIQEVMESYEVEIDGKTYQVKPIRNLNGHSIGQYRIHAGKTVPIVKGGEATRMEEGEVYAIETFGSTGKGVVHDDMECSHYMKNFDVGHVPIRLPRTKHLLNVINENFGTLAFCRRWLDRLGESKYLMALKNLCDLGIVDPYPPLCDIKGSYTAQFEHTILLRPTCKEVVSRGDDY

For orientation: pIC50 means −log10 of the IC50, conventionally taken in molar units.

For the compound `CO[C@@H]1C(=O)CC[C@](O)(C=O)[C@H]1[C@@]1(C)O[C@H]1CC=C(C)C`, the pIC50 in assay [1] is 7.28.
Turning to `CO[C@@H]1C(=O)CC[C@](O)(C[S+]([O-])c2ccccc2)[C@H]1[C@@]1(C)O[C@@H]1CC=C(C)C` (some centres not stated), the NA result in assay [2] and in assay [3] was “inactive” in each case.
For the compound `CO[C@@H]1[C@H](O)CC[C@](O)(C=O)[C@H]1[C@@]1(C)O[C@@H]1CC=C(C)C`, in assay [3], the NA result was “inactive”.
In the case of `CO[C@H]1[C@H]([C@@]2(C)O[C@H]2CC=C(C)C)[C@@](O)(C=O)CC[C@@H]1O`, the NA entry in assay [4] is “inactive”.
As for `CO[C@@H]1[C@H](OC(=O)/C=C/C=C/C=C/C=C/C(=O)O)CC[C@]2(CO2)[C@H]1[C@@]1(C)O[C@@H]1CC=C(C)C` [FUMAGILLIN], the results for the pIC50 in assay [5] and in assay [6] were 6.70 and 9.00, respectively.
